Test results published in publication PMC3857224, “Inhibition of DNA Glycosylases via Small Molecule Purine Analogs” (PLoS ONE, 2013).

Key:
NEIL1 = target: T1, NEIL1 (Homo sapiens, UniProt Q96FI4); assay: qHTS fluorogenic glycosylase/AP lyase assay, 1536-well, Sp/Gh substrate; format: biochemical; conditions: 5 concentrations
T1 construct: made in house
Procedure: The fluorogenic assay was miniaturized to 4 µL in 1536-well black solid plates by optimization of the enzyme and Sp/Gh substrate concentrations. Briefly, 3 µL of 25 nM NEIL1 were dispensed into each well of a 1536-well plate (except buffer in columns 3 and 4 as a negative control). Compounds (DMSO solutions) and control (DMSO only) (23 nL) were transferred to the plate via Kalypsys pintool. The plate was incubated for 15 min at room temperature, and then 1 µL of the Sp/Gh-containing DNA substrate (75 nM final concentration) was added to start the reaction. The plate was immediately transferred into the ViewLux reader for the kinetic fluorescence read. Initial rate data were normalized against uninhibited and no-enzyme controls and the resulting percent activities as a function of compound concentration were fitted using the Hill equation.
Having established the general principle for a glycosylase screening assay, further assay development was undertaken to enable HTS in which the reaction volumes were reduced by 5-fold to a total of 4 µL. Initially, the library of pharmacologically active compounds (LOPAC^1280) was screened for inhibitors of NEIL1 as a determination of the feasibility of this high-throughput method. […] All compounds were screened at 5 different concentrations that allowed for the initial estimation of inhibitory potency (IC50) values, as well as an evaluation of the shape of the response curves. In addition to the anticipated inhibitors (known DNA intercalators, such as ellipticine (IC50 = 2 µM)) and other small molecules that have been previously established to be promiscuous inhibitors (such as aurintricarboxylic acid (IC50<1 µM)), one interesting hit from this screen was CGP-74514A (NCGC ID is NCGC00015229) (Figure 5A). CGP-74514A is a known small molecule inhibitor of Cdk1 in which the structure of this molecule is based on a purine ring backbone.

duplex DNA ladder = assay: DNA ladder gel-shift intercalation assay; format: binding; conditions: 40 µM compound, 20 min room temperature
Procedure: To test whether potential inhibitors could exert their inhibitory effect via DNA intercalation, 10 µL reactions containing 500 ng of a 100-bp DNA ladder were incubated at room temperature for 20 min with 40 µM of the selected compound. Ellipticine, a compound that is known to intercalate into duplex DNA was used as a control compound at a final concentration of 40 µM. Samples were resolved on a 1% agarose gel in 0.5X Tris-borate EDTA running buffer at 120 V for 2 h. Shifts in gel mobility were visualized by post staining with ethidium bromide and images were captured on a ChemiImager 5500 (Protein Simple, Santa Clara, CA).
To assay whether these inhibitors could block NEIL1 activity through DNA intercalation, a DNA ladder gel-shift assay was performed, with ellipticine serving as a positive control. A duplex DNA ladder was incubated with each inhibitor, and analyzed for electrophoretic mobility shift.

T1 sequence (Q96FI4 whole entry): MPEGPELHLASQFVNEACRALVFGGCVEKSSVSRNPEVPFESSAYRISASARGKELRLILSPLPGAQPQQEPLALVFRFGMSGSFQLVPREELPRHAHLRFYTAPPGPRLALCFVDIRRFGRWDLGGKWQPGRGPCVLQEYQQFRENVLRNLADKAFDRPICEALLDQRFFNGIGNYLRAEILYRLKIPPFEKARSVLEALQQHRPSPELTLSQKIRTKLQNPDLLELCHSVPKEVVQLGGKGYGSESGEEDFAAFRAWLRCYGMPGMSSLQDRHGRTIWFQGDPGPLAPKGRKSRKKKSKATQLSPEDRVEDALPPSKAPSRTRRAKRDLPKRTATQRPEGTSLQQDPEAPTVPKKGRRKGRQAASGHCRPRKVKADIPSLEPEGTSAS

Q: With `Cc1c2ccncc2c(C)c2c1[nH]c1ccccc12` [ellipticine, reference compound] as the compound, how does the IC50 (NEIL1) read?
A: 2 µM

Q: What about the “shift in electrophoretic mobility of DNA ladder (intercalation)” value (duplex DNA ladder) of the same compound?
A: major reduction in the electrophoretic mobility
